Results: patent US10842838B2, “Method for the use of botanical extracts in the treatment of viral infections” (priority 2012, dated 2020)

Test system: VACV
Format: cell-based, vaccinia virus
Conditions: 100 pfu VACV, 48 HPI

C=C(C)[C@@H]1CC[C@]2(C)CC[C@]3(C)[C@H](CC[C@@H]4[C@@]5(C)CC[C@H](O)C(C)(C)[C@@H]5CC[C@]43C)[C@@H]12 [lupeol]
antiviral activity, VACV plaques: did not show suitable antiviral activity
